Source: patent publication US8816102B2, “Compounds” (Givaudan S.A., priority 2009, dated 2014)

How the values were obtained:
Parameters in all cases: species or system human
[1] = Sensory panel tasting of 0.3% NaCl and 0.03% MSG solution with and without compound; details: 0.3% NaCl, reference solution A: salty, umami, trained panel of 20 women
Procedure: (§1) Two solutions were prepared:
A a solution of 0.3% NaCl and 0.03% MSG
B a solution of 0.3% NaCl and 0.03% MSG and 10 ppm Example 6 compound.
(§2) The samples were tasted by a trained sensory panel composed of 20 women aged between 30 and 60.
A a solution of 0.3% NaCl, 0.03% MSG
B a solution of 0.3% NaCl, 0.03% MSG and 10 ppm N-heptyl-2-oxo-3-phenylpropionamide as prepared in example 9.
B a solution of 0.3% NaCl, 0.03% MSG and 1 ppm N-(4-heptyl)-2-oxo-3-phenylpropionamide as prepared in example 10.
B a solution of 0.3% NaCl, 0.03% MSG and 1 ppm N-heptyl 3-methoxy-4-hydroxy-mandelic acid as prepared in Example 8.

[2] = Use in potato chips, tasted by trained sensory panel
Procedure: Plain potato chips were prepared.
One part was flavoured with 1.2% sodium chloride (sample A)
One part was flavoured with 1.2% sodium chloride and 0.3% MSG (sample b)
One part was flavoured with 1.2% sodium chloride and 2.5 ppm N-(4-heptyl)-2-(benzo[1,3]dioxol-5-yl)-2-oxo-acetamide as prepared in example 3 (sample C).
as §2

[3] = Use in tomato soup, tasted by flavourists; details: tomato soup containing 10 ppm compound; 4 flavourists
Procedure: A tomato soup mix was prepared from 9.4 g of sodium chloride, 1 g of mono sodium glutamate, 0.08 g ribonucleotides (ex yeast), 32 g of tomato powder (ex Spreda), 25.1 g of glucose, 21 g of starch (Ultrasperse 5 ex National Starch), 5 g of palm fat powder, 3 g of yeast powder, 1 g on onion powder, 0.15 g of carrot powder, 0.05 g of ground white pepper, 0.3 g celery extract powder, 0.05 g of ground laurel leaf powder, and 1.85 g of sucrose. 25 G of the well mixed ingredients was added to 250 g of boiling water and stirred until completely dissolved.
The reference soup was compared with a batch of the same soup containing 10 ppm of N-(2-hydroxyethyl)-2-(benzo[1,3]dioxol-5-yl)-2-oxoacetamide as prepared in example 2.

[4] = Sensory panel tasting of 0.3% NaCl solution with and without compound; details: 0.3% NaCl and 10 ppm compound; reference solution A (0.3% NaCl): salty; trained panel of 20 women
Procedure: as §1
A a solution of 0.3% NaCl
B a solution of 0.3% NaCl and 10 ppm Example 1 compound
as §2
B a solution of 0.3% NaCl and 10 ppm Example 5 compound.

[5] = Use in tomato ketchup, tasted by flavourists; details: 4 flavourists
Procedure: A tomato ketchup was prepared from 19% tomato paste (28-30% dry weight), 8% of vinegar (15%), 3% of sodium chloride, 20% of sugar and 50% of water.
To one half of the batch was added 2 ppm of N-(4-heptyl) 2-(4-hydroxy-3-methyxophenol)-2-oxoacetamide (Example 5)
A batch of tomato ketchup was prepared as described in Example 12. To one half of the batch was added 20 ppm N-(4-hepthyl) 4-hydroxy-3-methoxy-mandelic amide as prepared in Example 7.

With `CCCCCCCNC(=O)C(=O)Cc1ccccc1` [Example 9, N-heptyl-2-oxo-3-phenylpropanamide] the “taste description of solution B” value ([1]; 0.03% MSG and 10 ppm compound) was “salty, stronger umami, more bouillon-like”.

In the case of `N[C@@H](CCC(=O)O)C(=O)[O-].[Na+]` [MSG, monosodium glutamate, reference compound], the “taste description of potato chips sample B” value ([2]; 1.2% sodium chloride and 0.3% MSG) is reported as “salty and umami”.

For `O=C(NCCO)C(=O)c1ccc2c(c1)OCO2` [Example 2, 2-(benzo[d][1.3]dioxol-5-yl)-N-(2-hydroxyethyl)-2-oxoacetamide], the “taste of test soup compared with base soup” value [3] was “more umami, was more lingering and was more complex”.

With `CCCCCCCNC(=O)C(O)c1ccc(O)c(OC)c1` (stereo not shown) [Example 8, N-heptyl-2-hydroxy-2-(4-hydroxy-3-methoxyphenyl)acetamide] the “taste description of solution B” value ([1]; 0.03% MSG and 1 ppm compound) was “salty, more umami, slightly pungent”.

In the case of `CCCC(CCC)NC(=O)C(=O)c1ccc2c(c1)OCO2` [Example 3, 2-(benzo[d][1,3]dioxol-5-yl)-N-(heptan-4-yl)-2-oxoacetamide], the “taste description of potato chips sample C” value ([2]; 1.2% sodium chloride and 2.5 ppm compound, sample A (1.2% sodium chloride): salty) is reported as “salty, umami, long lasting, savoury, bouillon”, the panel preference ([2]; sample C (1.2% sodium chloride and 2.5 ppm compound) versus samples A and B) is reported as “preferred over the other two samples” and the off-note observed ([2]; sample C, 1.2% sodium chloride and 2.5 ppm compound) is reported as “slight bitter off-note”.

With `O=C(NCCO)C(=O)c1ccccc1` [Example 1, N-(2-hydroxyethyl)-2-oxo-2-phenylacetamide] the “taste description of solution B” value [4] was “more salty, salivating”.

For `CCCCCCCNC(=O)C(=O)c1ccc(O)c(OC)c1` [Example 5, N-heptyl-2-(4-hydroxy-3-methoxyphenyl)-2-oxoacetamide], the “taste of test ketchup compared with base ketchup” value ([5]; tomato ketchup with 2 ppm compound) was “clearly more umami, more sweet and more full/complex” and the “taste description of solution B” value [4] was “more salty, salivating, lingering”.

For `CCCC(CCC)NC(=O)C(O)c1ccc(O)c(OC)c1` (stereo not shown) [Example 7, N-(heptan-4-yl)-2-hydroxy-2-(4-hydroxy-3-methoxyphenyl)acetamide], the “taste of test ketchup compared with base ketchup” value ([5]; tomato ketchup with 20 ppm compound) was “more umami, more bouillon-like and more full/complex”.

For `CCCC(CCC)NC(=O)C(=O)Cc1ccccc1` [Example 10, N-(heptan-4-yl)-2-oxo-3-phenylpropanamide], the “taste description of solution B” value ([1]; 0.03% MSG and 1 ppm compound) was “salty, more umami, more bouillon-like, slightly tingling”.

In the case of `CC(=O)C(=O)NCCO` [Example 6, N-(2-hydroxyethyl)-2-oxopropanamide], the “taste description of solution B” value ([1]; 0.03% MSG and 10 ppm compound) is reported as “more salty, more umami”.
